{
  "source": "patent US20250270159A1",
  "about": "“1-(CYCLOBUTANEMETHYLIDENE)-2, 4, 5-TRIMETHOXYBENZENE COMPOUND AND PREPARATION METHOD AND USE THEREOF” (CHENGDU XINRUI TAIKANG TECHNOLOGY CO., LTD., priority 2023, published 2025)",
  "key": {"[1]": {"system": "TNF-α", "test": "TNF-α in cerebral cortex of TBI rats", "assay_type": "in vivo, SD rats", "settings": "30 mg/kg ip 2 h after TBI; 24 h after administration; FIG. 3", "description": "The experimental grouping and drug administration plan were as follows. • Sham operation group (Group P): saline was given with the same volume as in the CTMB group; • Model group (T group): a blank emulsion was given with the same volume as in the CTMB group; • Medium dose group (Group M): a dose of 30 mg/kg of CTMB emulsion injection was given.\nThe experimental grouping and drug administration plan were the same as the test 3. After 2 h of the TBI modeling, different groups of rats were administered intraperitoneally. After 24 h of the administration, the rats were deeply anesthetized, the head was severed and the brain was removed, about 60-120 mg of hemisphere cortex was taken out from the hemisphere on the blood side, 10 times the volume of ice-cold centrifugal buffer used for biochemical assays was added, homogenization was carried out in an ice bath for 10 min, and centrifugation was carried out at 4° C. and 14000 rpm/min for 30 min. The supernatant was extracted, and inflammatory factors IL-1, IL-6, and TNF-α were tested according to the instructions of IL-1, IL-6, and TNF-α assay kits, respectively."}, "[2]": {"system": "ischemic stroke induced by the filament technique in rats", "test": "Long-term ischemic stroke (MCAO), bonding (adhesive tape) test", "assay_type": "in vivo", "settings": "for Time for rats to perceive tape, Day 1 / Time for rats to perceive tape, Day 4 / Time for rats to perceive tape, Day 7 / Time for rats to perceive tape, Day 10 / Time for rats to perceive tape, Day 14 / Time of removing tape, Day 1 / Time of removing tape, Day 4 / Time of removing tape, Day 7 / Time of removing tape, Day 10 / Time of removing tape, Day 14: cut-off 60 s", "description": "(§1) The rats were randomly divided into a sham operation group (Sham group, given a blank emulsion with a volume equal to that of the high-dose CTMB group), a model group (Vehicle group, given a blank emulsion with a volume equal to that of the high-dose CTMB group), a low-dose CTMB group (CTMB-L group, 10 mg/kg), a high-dose CTMB group (CTMB-H group, 20 mg/kg), and an edaravone dexborneol injection concentrated solution group (EDB group, commercially available, 3 mg/kg). 10 rats were included in each group, which were administered by intraperitoneal injection. It should be noted that in the experiment, the mode of administration for rats was intraperitoneal injection, and a ratio of the effective dose of CTMB, the active ingredient in the emulsion injection, to the unit mass of the human body was within a range of 0.2 mg-4.0 mg/kg, which referred to the ratio of the effective dose of CTMB, the active ingredient in the emulsion injection, to the unit mass of the human body during intravenous infusion, which was extrapolated from the effective dose of the rats. Considering the different bioavailability, peak concentration, and peak time of the drug due to different species and different modes of administration, the effective dose of the active ingredient CTMB in the emulsion injection to the unit mass of human body was finally determined to be 0.2 mg-4.0 mg/kg through conversion.\n(§2) The rats were fasted for 12 h before procedure, and the rats were anesthetized with 10% chloral hydrate (350 mg/kg, i.p.). The rats were fixed in the supine position, and the body temperature was maintained at about 37° C. For neck preparation, a median neck incision was made, the muscle and fascia were separated along the inner edge of the sternocleidomastoid muscle to expose the right side, the common carotid artery (CCA), external carotid artery (ECA), and internal carotid artery (ICA) were separated bluntly, and the lines were disposed of proximally in the CCA proximal end, ICA, and ECA for backup. The CCA proximal end and ECA were ligatured, and an arterial clip was used to temporarily close the ICA, then a small hole was poked at a position of CCA having about 4 mm from the bifurcation with a needle. The filament was inserted into the ICA through the CCA, the arterial clipped on ICA was loosened, and the filament was slowly advanced. When the mark on the filament reached the bifurcation and a slight resistance was felt, the thin wire at ICA was tightened, and saline was used to clean the wound and then suture was performed. The sham procedure was the same as the experimental group except that no filament was inserted. After anesthesia, the rats were raised normally.\nRats were trained in adhesion experiments for one week before modeling, and those that could successfully tear off the tape within 10 s were screened for modeling. After 2 h of modeling by the filament technique, the rats were immediately administered with the drug according to the grouped administration plan. Thereafter, the rats were continued to be administered with the drug once a day for 14 days, and adhesion experiments were performed on days 1, 4, 7, 10, and 14 to assess sensory and motor nerve function. The specific operation was as follows. A circular tape with a diameter of about 12 mm was adhered to the plantar surface of the left forelimb of the rat, and the sensation and removal time of the tape was recorded. If the mice were unable to perceive and/or remove the tape within 60 s, 60 s were recorded."}, "[3]": {"system": "ischemic stroke induced by the filament technique in rats", "test": "Long-term ischemic stroke (MCAO), neurological deficit score (mNSS)", "assay_type": "in vivo", "description": "as §1, §2\nExperimental materials, groups (n=10-15), modeling manner, and scoring criteria were the same as the acute phase of treatment. After 2 h of modeling by the filament technique, the drugs were immediately administered according to the grouped administration plan, and thereafter the drugs continued to be administered once a day for 14 days, and modified mNSS score was performed on days 1, 4, 7, and 14."}, "[4]": {"settings": "CTMB-H 20 mg/kg ip once a day for 14 days"}, "[5]": {"settings": "CTMB-L 10 mg/kg ip once a day for 14 days"}},
  "data": [
    {"compound": "COc1cc(OC)c(OC)cc1C=C1CCC1", "note": "[CTMB, 1-(cyclobutylidenemethyl)-2,4,5-trimethoxybenzene]", "values": [
      {"measurement": "content of TNF-α in cerebral cortex tissue", "setting": "[1]", "value": "significantly reduced"},
      {"measurement": "toxic side effects associated with administration", "setting": "[2]; 10 and 20 mg/kg ip once a day for 14 days, bonding test", "value": "No toxic side effects"},
      {"measurement": "Time for rats to perceive tape, Day 1", "setting": "[2]; CTMB-H 20 mg/kg ip once a day", "value": "31.17 ± 24.57^#^ s"},
      {"measurement": "Time for rats to perceive tape, Day 4", "setting": "[2]; CTMB-H 20 mg/kg ip once a day", "value": "25.33 ± 23.41^#^ s"},
      {"measurement": "Time for rats to perceive tape, Day 7", "setting": "[2]; CTMB-H 20 mg/kg ip once a day", "value": "20.50 ± 22.99^#^ s"},
      {"measurement": "Time for rats to perceive tape, Day 10", "setting": "[2]; CTMB-H 20 mg/kg ip once a day", "value": "7.00 ± 4.56", "unit": "s"},
      {"measurement": "Time for rats to perceive tape, Day 14", "setting": "[2]; CTMB-H 20 mg/kg ip once a day", "value": "8.44 ± 11.94", "unit": "s"},
      {"measurement": "Time of removing tape, Day 1", "setting": "[2]; CTMB-H 20 mg/kg ip once a day", "value": "53.67 ± 16.66", "unit": "s"},
      {"measurement": "Time of removing tape, Day 4", "setting": "[2]; CTMB-H 20 mg/kg ip once a day", "value": "51.33 ± 17.14", "unit": "s"},
      {"measurement": "Time of removing tape, Day 7", "setting": "[2]; CTMB-H 20 mg/kg ip once a day", "value": "48.67 ± 16.55", "unit": "s"},
      {"measurement": "Time of removing tape, Day 10", "setting": "[2]; CTMB-H 20 mg/kg ip once a day", "value": "31.11 ± 19.76", "unit": "s"},
      {"measurement": "Time of removing tape, Day 14", "setting": "[2]; CTMB-H 20 mg/kg ip once a day", "value": "33.22 ± 23.03", "unit": "s"},
      {"measurement": "Time for rats to perceive tape, Day 1", "setting": "[2]; CTMB-L 10 mg/kg ip once a day", "value": "42.25 ± 25.53", "unit": "s"},
      {"measurement": "Time for rats to perceive tape, Day 4", "setting": "[2]; CTMB-L 10 mg/kg ip once a day", "value": "27.50 ± 28.05", "unit": "s"},
      {"measurement": "Time for rats to perceive tape, Day 7", "setting": "[2]; CTMB-L 10 mg/kg ip once a day", "value": "28.20 ± 28.97^#^ s"},
      {"measurement": "Time for rats to perceive tape, Day 10", "setting": "[2]; CTMB-L 10 mg/kg ip once a day", "value": "27.11 ± 30.06", "unit": "s"},
      {"measurement": "Time for rats to perceive tape, Day 14", "setting": "[2]; CTMB-L 10 mg/kg ip once a day", "value": "10.44 ± 12.44", "unit": "s"},
      {"measurement": "Time of removing tape, Day 1", "setting": "[2]; CTMB-L 10 mg/kg ip once a day", "value": "50.75 ± 17.65", "unit": "s"},
      {"measurement": "Time of removing tape, Day 4", "setting": "[2]; CTMB-L 10 mg/kg ip once a day", "value": "36.20 ± 24.17", "unit": "s"},
      {"measurement": "Time of removing tape, Day 7", "setting": "[2]; CTMB-L 10 mg/kg ip once a day", "value": "38.60 ± 26.15^#, * s"},
      {"measurement": "Time of removing tape, Day 10", "setting": "[2]; CTMB-L 10 mg/kg ip once a day", "value": "26.63 ± 27.80", "unit": "s"},
      {"measurement": "Time of removing tape, Day 14", "setting": "[2]; CTMB-L 10 mg/kg ip once a day", "value": "26.22 ± 21.48", "unit": "s"},
      {"measurement": "toxic side effects associated with administration", "setting": "[3]; 10 and 20 mg/kg ip once a day for 14 days", "value": "No toxic side effects"},
      {"measurement": "mNSS score, Day 1", "setting": "[3]; [4]", "value": "5.69 ± 2.13^##, **"},
      {"measurement": "mNSS score, Day 4", "setting": "[3]; [4]", "value": "3.75 ± 1.67^##, **"},
      {"measurement": "mNSS score, Day 7", "setting": "[3]; [4]", "value": "2.83 ± 1.17^##, *"},
      {"measurement": "mNSS score, Day 14", "setting": "[3]; [4]", "value": "2.45 ± 1.36^##, *"},
      {"measurement": "mNSS score, Day 1", "setting": "[3]; [5]", "value": "6.45 ± 2.37^##, *"},
      {"measurement": "mNSS score, Day 4", "setting": "[3]; [5]", "value": "3.65 ± 1.29^##, **"},
      {"measurement": "mNSS score, Day 7", "setting": "[3]; [5]", "value": "3.38 ± 0.83"},
      {"measurement": "mNSS score, Day 14", "setting": "[3]; [5]", "value": "2.94 ± 1.56"}
    ]}
  ]
}
